Where two headings read alike, the source gives them in different places.
How the values were obtained:
[1] = system: Rhizoctonia solani; assay: Rhizoctonia test (rice) / protective; type: in vivo; details: 96 h, active compound concentration 250 ppm, evaluation 4 days after inoculation, read-out: efficacy
[2] = system: Pyrenophora teres; assay: Pyrenophora teres test (barley) / protective; type: in vivo; details: 192 h, active compound concentration 500 ppm, evaluation 8 days after inoculation, read-out: efficacy
Procedure: After the spray coating has dried on, the plants are sprayed with a spore suspension of Pyrenophora teres. The plants remain in an incubation cabinet for 48 hours at 20° C. and 100% relative atmospheric humidity.

[3] = system: Pyricularia oryzae; assay: whole plant or invertebrate; type: in vivo; details: 120 h, read-out: efficacy
[4] = system: Sphaerotheca fuliginea; assay: Sphaerotheca test (cucumber) / protective; type: in vivo; details: Podosphaera fuliginea, 168 h, active compound concentration 500 ppm, evaluation 7 days after inoculation, read-out: efficacy
Procedure: The plants are subsequently placed in a greenhouse at 70% relative atmospheric humidity and a temperature of 23° C.

[5] = logP by LC-MS on reversed-phase columns (C 18), method [b], acidic range pH 2.7; type: physicochemical; details: for chromatographic logP: pH 2.7, log p
Procedure: (§1) The logP values were determined in accordance with EEC Directive 79/831 Annex V.A8 by HPLC (High Performance Liquid Chromatography) on reversed-phase columns (C 18), using the methods below:
[b] The LC-MS determination in the acidic range is carried out at pH 2.7 using the mobile phases 0.1% aqueous formic acid and acetonitrile (contains 0.1% formic acid), linear gradient from 10% acetonitrile to 95% acetonitrile.

[6] = system: Leptosphaeria nodorum; assay: Leptosphaeria nodorum test (wheat) / protective; type: in vivo; details: Parastagonospora nodorum, active compound concentration 500 ppm, evaluation 7-9 days after inoculation, read-out: efficacy
Procedure: Thereafter, the plants are placed in a greenhouse at 90% relative atmospheric humidity and a temperature of 22° C.

[7] = logP by LC-MS on reversed-phase columns (C 18), method [c], neutral range pH 7.8; type: physicochemical; details: pH 7.8
Procedure: as §1
[c] The LC-MS determination in the neutral range is carried out at pH 7.8 using the mobile phases 0.001 molar aqueous ammonium bicarbonate solution and acetonitrile, linear gradient from 10% acetonitrile to 95% acetonitrile.

[8] = system: Cochliobolus miyabeanus; assay: Cochliobolus test (rice) / protective; details: Bipolaris oryzae, in Oryza sativa, 96 h, read-out: efficacy
Procedure: Cochliobolus Test (Rice)/Protective • Solvent: 28.5 parts by weight of acetone • Emulsifier: 1.5 parts by weight of alkylaryl polyglycol ether
1 day after the treatment, the plants are inoculated with an aqueous spore suspension of Cochliobolus miyabeanus. The plants are then placed in a greenhouse at 100% relative atmospheric humidity and 25° C.
Evaluation is carried out 4 days after the inoculation.

[9] = system: Alternaria solani; assay: Alternaria test (tomato) / protective; type: in vivo; details: 72 h, active compound concentration 100 ppm, evaluation 3 days after inoculation, read-out: efficacy
Procedure: The plants are then placed in an incubation cabinet at about 20° C. and 100% relative atmospheric humidity.

[10] = system: Venturia inaequalis; assay: Venturia test (apple) / protective; type: in vivo; details: 240 h, active compound concentration 100 ppm, evaluation 10 days after inoculation, read-out: efficacy
Procedure: After the spray coating has dried on, the plants are inoculated with an aqueous conidia suspension of the apple scab pathogen Venturia inaequalis and then remain for 1 day in an incubation cabinet at about 20° C. and 100% relative atmospheric humidity.

[11] = logP by HPLC on reversed-phase columns (C 18), method [a], acidic range pH 2.3; type: physicochemical; details: pH 2.3, logP (pH2.3)
Procedure: as §1
[a] The determination is carried out in the acidic range at pH 2.3 using the mobile phases 0.1% aqueous phosphoric acid and acetonitrile, linear gradient from 10% acetonitrile to 95% acetonitrile.

[12] = system: Fusarium proliferatum; assay: Production of fumonisin FB1 by Fusarium proliferatum (microtitre plates; FB1 by HPLC-MS/MS, growth by OD620); type: cell-based; details: for IC50: Fusarium proliferatum, 144 h
[13] = growth, OD620 at the beginning and after 6 days, read-out: pI50 growth (converted)

| SMILES | pest or weed control at 250 ppm [1] [%] | pest or weed control at 500 ppm [2] [%] | pest or weed control at 250 ppm [3] [%] | pest or weed control at 500 ppm [4] [%] | chromatographic logP [5] | pest or weed control at 500 ppm [6] [%] | chromatographic logP [7] | pest or weed control at 250 ppm [8] [%] | pest or weed control at 100 ppm [9] [%] | pest or weed control at 100 ppm [10] [%] | chromatographic logP [11] | IC50 ([12]; read-out: pI50 Fum) [µM] | IC50 [12, 13] [µM] | log p ([5]; pH 2.7) | pI50 Fum ([12]; fumonisin FB1 production, 6 days at 20° C., HPLC-MS/MS) | pI50 growth ([12]; growth, OD620 at the beginning and after 6 days) |
| --- | --- | --- | --- | --- | --- | --- | --- | --- | --- | --- | --- | --- | --- | --- | --- | --- |
| CC[S+]([O-])c1cccc(Nc2ncc(C(F)(F)F)c(NC3CC3)n2)c1 (stereo not drawn) [Example 117] | ≥ 80 | ≥ 70 | ≥ 80 | ≥ 70 | 2.2 | ≥ 70 | 2.46 | ≥ 80 |  |  |  |  |  |  |  |  |
| COCc1cccc(Nc2ncc(Cl)c(NC(C)C)n2)c1 [Example 26] | ≥ 80 |  | ≥ 80 |  | 1.76 | ≥ 70 |  | ≥ 80 | ≥ 70 | ≥ 70 |  |  |  |  |  |  |
| COC(C)c1cc(Nc2ncc(Cl)c(NC3CC3)n2)ccc1C (stereo not drawn) [Example 92] |  |  | ≥ 80 | ≥ 70 | 2.11 | ≥ 70 | 3.7 | ≥ 80 | ≥ 70 | ≥ 70 |  |  |  |  |  |  |
| CCCCS(=O)(=O)c1cccc(Nc2ncc(C(F)(F)F)c(NC3CC3)n2)c1 [Example 121] | ≥ 80 |  | ≥ 80 | ≥ 70 | 3.4 | ≥ 70 | 3.46 | ≥ 80 | ≥ 70 | ≥ 70 |  |  |  |  |  |  |
| CCS(=O)(=O)c1cccc(Nc2ncc(C(F)(F)F)c(NC3CC3)n2)c1 [Example 116] | ≥ 80 | ≥ 70 | ≥ 80 | ≥ 70 | 2.74 | ≥ 70 | 2.8 | ≥ 80 |  | ≥ 70 |  |  |  |  |  |  |
| CCCCSc1cccc(Nc2ncc(Cl)c(NC3CCC3)n2)c1 [Example 106] | ≥ 80 |  | ≥ 80 |  | 4.28 | ≥ 70 | 5.13 | ≥ 80 | ≥ 70 | ≥ 70 |  |  |  |  |  |  |
| COCC(C)Oc1ccc(Nc2ncc(Br)c(NC3CC3)n2)cc1 (stereo not drawn) [Example 1, 5-Bromo-N^4-cyclopropyl-N^2-{4-[(1-methoxypropan-2-yl)oxy]phenyl}pyrimidine-2,4-diamine] |  |  |  |  | 1.83 | ≥ 70 |  |  |  | ≥ 70 | 1.83 | 1.26 | 6.31 |  |  |  |
| CCOCCOc1cccc(Nc2ncc(Cl)c(NC3CC3)n2)c1 [Example 93] |  | ≥ 70 | ≥ 80 | ≥ 70 | 2.13 | ≥ 70 | 3.3 | ≥ 80 | ≥ 70 | ≥ 70 |  |  |  |  |  |  |
| CCS(=O)(=O)c1cccc(Nc2ncc(Cl)c(NC3CCC3)n2)c1 [Example 27, 5-chloro-N^4-cyclobutyl-N^2-[3-(ethylsulphonyl)phenyl]pyrimidine-2,4-diamine] |  |  | ≥ 80 | ≥ 70 | 2.21 | ≥ 70 |  | ≥ 80 | ≥ 70 | ≥ 70 | 2.21 | 2 | 20 |  |  |  |
| CCC[S+]([O-])c1cccc(Nc2ncc(Cl)c(NC3CCC3)n2)c1 (stereo not drawn) [Example 100] | ≥ 80 |  | ≥ 80 |  | 2.09 | ≥ 70 |  | ≥ 80 | ≥ 70 | ≥ 70 |  |  |  |  |  |  |
| CCS(=O)(=O)C(C)c1cccc(Nc2ncc(Cl)c(NC3CCC3)n2)c1 (stereo not drawn) [Example 77] | ≥ 80 | ≥ 70 | ≥ 80 | ≥ 70 | 1.9 | ≥ 70 | 2.98 | ≥ 80 | ≥ 70 | ≥ 70 |  |  |  |  |  |  |
| CCCSc1cccc(Nc2ncc(Br)c(NC3CCC3)n2)c1 [Example 57] | ≥ 80 | ≥ 70 | ≥ 80 | ≥ 70 | 3.96 | ≥ 70 |  | ≥ 80 | ≥ 70 | ≥ 70 |  |  |  |  |  |  |
| CC[S+]([O-])C(C)c1cccc(Nc2ncc(C(F)(F)F)c(NC3CC3)n2)c1 (stereo not drawn) [Example 45] |  |  |  |  |  |  |  |  |  |  |  |  |  | 2.2[b] | 5.0 | 4.7 |
| CC[S+]([O-])C(C)c1cccc(Nc2ncc(Cl)c(NC3CCC3)n2)c1 (stereo not drawn) [Example 76] | ≥ 80 | ≥ 70 | ≥ 80 | ≥ 70 | 1.68 | ≥ 70 | 2.53 | ≥ 80 | ≥ 70 | ≥ 70 |  |  |  |  |  |  |
| COCc1cccc(Nc2ncc(C(F)(F)F)c(NC3CCC3)n2)c1 [Example 24] | ≥ 80 | ≥ 70 | ≥ 80 |  | 3.3 | ≥ 70 |  |  |  |  |  | 2 | 7.94 |  |  |  |
| COC(C)(C)Cc1cccc(Nc2ncc(Cl)c(NC3CC3)n2)c1 [Example 64] |  | ≥ 70 | ≥ 80 |  | 2.21 | ≥ 70 | 3.81 |  | ≥ 70 | ≥ 70 |  | 0.631 | 5.01 |  |  |  |
| CCSC(C)c1cccc(Nc2ncc(Br)c(NC3CCC3)n2)c1 (stereo not drawn) [Example 12] |  | ≥ 70 |  |  | 3.49 | ≥ 70 |  |  | ≥ 70 | ≥ 70 |  | 10 | > 50.1 |  |  |  |
| COC(C)c1cccc(Nc2ncc(Cl)c(NC3CCC3)n2)c1 (stereo not drawn) [Example 15] | ≥ 80 | ≥ 70 | ≥ 80 | ≥ 70 | 2.27 | ≥ 70 |  | ≥ 80 | ≥ 70 | ≥ 70 |  |  |  |  |  |  |
| COC(C)c1cccc(Nc2ncc(Cl)c(NC(C)C)n2)c1 (stereo not drawn) [Example 129] | ≥ 80 |  | ≥ 80 | ≥ 70 | 2.02 | ≥ 70 | 3.67 | ≥ 80 | ≥ 70 | ≥ 70 |  |  |  |  |  |  |
| CCOCCOc1ccc(Nc2ncc(C(F)(F)F)c(NC3CC3)n2)cc1 [Example 91] | ≥ 80 | ≥ 70 | ≥ 80 | ≥ 70 | 3.26 | ≥ 70 | 3.64 | ≥ 80 |  |  |  |  |  |  |  |  |
| COC(C)c1cccc(Nc2ncc(Cl)c(NCC(F)(F)F)n2)c1 (stereo not drawn) [Example 83] | ≥ 80 |  | ≥ 80 | ≥ 70 | 2.82 | ≥ 70 | 3.18 | ≥ 80 | ≥ 70 | ≥ 70 |  |  |  |  |  |  |
